Measured values: US9096494B2, “Arachidonic acid analogs and methods for analgesic treatment using same” (priority 2009, dated 2015)
Where “and” joins values, the source holds several entries; their conditions need not be identical. Equal values may be shown once.

What was measured:
[1] = Analgesic potency comparison with natural EETs and AM404; conditions: in vivo
Excerpt: Chemically, it is close structural analog of a set of lipid mediators derived from arachidonic acid that the body uses to control pain.

Adenosine/A2A = target: T1, Adenosine/A2A (Homo sapiens, UniProt P29274); experiment: Cerep BioPrint dependence and addiction panel; type: binding
T1 construct: Cerep (contract screen)

Serotonin/5-HT1A = target: T2, Serotonin/5-HT1A (Homo sapiens, UniProt P08908); experiment: Cerep BioPrint dependence and addiction panel; type: binding
T2 construct: Cerep (contract screen)

Opioid/mu(MOP) = target: T3, Opioid/mu(MOP) (Homo sapiens, UniProt P35372); experiment: Cerep BioPrint dependence and addiction panel; type: binding
T3 construct: Cerep (contract screening panel)

Dopamine/D3 = Dopamine/D3 (Homo sapiens, UniProt P35462); experiment: Cerep BioPrint dependence and addiction panel; type: binding
Serotonin/5-Ht2A = target: T4, Serotonin/5-Ht2A (Homo sapiens, UniProt P28223); experiment: Cerep BioPrint dependence and addiction panel; type: binding
T4 construct: Cerep (contract screen)
T4 sequence (P28223 whole entry): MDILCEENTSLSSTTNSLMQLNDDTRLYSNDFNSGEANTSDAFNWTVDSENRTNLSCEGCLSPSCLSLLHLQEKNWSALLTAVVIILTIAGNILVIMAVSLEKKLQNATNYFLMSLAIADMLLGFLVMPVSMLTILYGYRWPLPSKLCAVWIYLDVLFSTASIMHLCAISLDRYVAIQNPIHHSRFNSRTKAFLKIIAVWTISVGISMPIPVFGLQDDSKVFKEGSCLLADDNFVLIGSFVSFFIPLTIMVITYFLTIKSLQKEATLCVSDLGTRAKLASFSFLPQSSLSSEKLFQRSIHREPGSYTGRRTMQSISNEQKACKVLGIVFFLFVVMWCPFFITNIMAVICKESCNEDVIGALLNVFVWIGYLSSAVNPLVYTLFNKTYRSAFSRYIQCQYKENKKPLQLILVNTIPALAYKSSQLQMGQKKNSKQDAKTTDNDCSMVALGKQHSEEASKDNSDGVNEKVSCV

mice [2] = experiment: Tail-flick assay in mouse; type: in vivo; conditions: for time to maximal (full) analgesic response, tail-flick: 10 mg/kg intravenous bolus
Procedure: The tail-flick assay is based on the time measured to reflex withdrawal of the tail in response to a radiant heat source. The maximum exposure time to the radiant heat source is set at 10 seconds. Prior to treatment, a baseline (BL) time measured to tail-flick withdrawal is determined after two exposures to the radiant source separated by a 30 min period. Control mice are intravenously treated with vehicle and test mice are intravenously treated with analgesic test compound. Data of tail-flick withdrawal of treated mice (TM) are calculated as maximum possible effect (MPE), where MPE=(TM−BL)/(10−BL). Tail-flick withdrawal is measured at 5 min, 15 min, 30 mm, and 1 hr. A total of 3-5 mice are used for each time point tested.

TRPV1(VR1) agonist = target: T5, TRPV1(VR1) agonist (Rattus norvegicus, UniProt O35433); experiment: Cerep BioPrint receptor binding
T5 construct: Cerep (contract screen)
T5 sequence (O35433 whole entry): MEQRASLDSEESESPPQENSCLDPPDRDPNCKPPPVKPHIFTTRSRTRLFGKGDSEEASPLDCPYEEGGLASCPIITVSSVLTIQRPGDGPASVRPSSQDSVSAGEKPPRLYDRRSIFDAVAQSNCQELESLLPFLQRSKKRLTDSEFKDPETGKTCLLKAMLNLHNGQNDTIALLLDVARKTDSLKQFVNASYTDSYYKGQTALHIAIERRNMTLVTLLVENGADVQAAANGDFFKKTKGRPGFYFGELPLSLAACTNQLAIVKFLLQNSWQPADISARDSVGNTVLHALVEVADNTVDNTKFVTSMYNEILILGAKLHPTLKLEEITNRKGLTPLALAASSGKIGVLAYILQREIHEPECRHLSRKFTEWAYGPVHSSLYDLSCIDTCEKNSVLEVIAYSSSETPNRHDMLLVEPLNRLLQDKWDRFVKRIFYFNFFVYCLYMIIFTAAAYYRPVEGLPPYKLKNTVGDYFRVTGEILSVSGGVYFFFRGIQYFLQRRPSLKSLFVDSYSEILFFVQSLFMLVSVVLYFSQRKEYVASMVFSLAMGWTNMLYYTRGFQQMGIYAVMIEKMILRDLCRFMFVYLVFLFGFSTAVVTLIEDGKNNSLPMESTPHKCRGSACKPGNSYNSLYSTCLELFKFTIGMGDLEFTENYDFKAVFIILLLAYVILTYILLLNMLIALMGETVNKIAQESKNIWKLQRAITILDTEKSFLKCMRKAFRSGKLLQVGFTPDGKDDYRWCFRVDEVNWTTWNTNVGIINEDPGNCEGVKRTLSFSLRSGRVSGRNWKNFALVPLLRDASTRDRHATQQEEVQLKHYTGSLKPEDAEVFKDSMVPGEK

[3] = target: CL-Channel (GABA gated) antagonist; experiment: Cerep BioPrint receptor binding
ATPase/ATPase(Na+/K+) = experiment: Cerep BioPrint dependence and addiction panel (enzyme); type: biochemical
GABA/GABAA = experiment: Cerep BioPrint dependence and addiction panel; type: binding
Dopamine/D2S = Dopamine/D2S (Homo sapiens, UniProt P14416); experiment: Cerep BioPrint dependence and addiction panel; type: binding
Chain of Dopamine/D2S (P14416 other isoform, or with tags, fused parts or gaps): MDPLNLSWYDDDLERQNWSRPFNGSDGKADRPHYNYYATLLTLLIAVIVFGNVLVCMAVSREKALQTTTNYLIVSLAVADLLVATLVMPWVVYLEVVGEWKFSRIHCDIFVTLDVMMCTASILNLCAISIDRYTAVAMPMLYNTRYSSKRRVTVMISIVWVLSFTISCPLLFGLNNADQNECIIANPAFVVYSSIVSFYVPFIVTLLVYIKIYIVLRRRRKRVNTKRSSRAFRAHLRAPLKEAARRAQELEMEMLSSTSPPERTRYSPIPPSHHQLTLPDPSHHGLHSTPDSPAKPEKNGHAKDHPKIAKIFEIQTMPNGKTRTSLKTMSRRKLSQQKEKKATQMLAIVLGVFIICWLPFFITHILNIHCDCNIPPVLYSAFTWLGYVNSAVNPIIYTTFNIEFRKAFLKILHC

GABA/GABAB(1b) = target: T6, GABA/GABAB(1b) (Homo sapiens, UniProt Q9UBS5); experiment: Cerep BioPrint dependence and addiction panel; type: binding
T6 construct: Cerep (contract screen)

[4] = tested on: Dopamine transporter/5HT transporter; experiment: Cerep BioPrint dependence and addiction panel; type: binding
[5] = Intravenous analgesia: onset and duration of effect; conditions: for time to peak effect: animal tests; for onset of analgesia after intravenous bolus injection or infusion: from the start of injection; for duration of analgesic effect from bolus injection: intravenous bolus
Glutamate/AMPA = experiment: Cerep BioPrint dependence and addiction panel; type: binding
[6] = target: T7, MT1(ML1A) agonist-Melatonin (Homo sapiens, UniProt P48039); experiment: Cerep BioPrint receptor binding
T7 construct: Cerep (contract screen)
T7 sequence (P48039 whole entry): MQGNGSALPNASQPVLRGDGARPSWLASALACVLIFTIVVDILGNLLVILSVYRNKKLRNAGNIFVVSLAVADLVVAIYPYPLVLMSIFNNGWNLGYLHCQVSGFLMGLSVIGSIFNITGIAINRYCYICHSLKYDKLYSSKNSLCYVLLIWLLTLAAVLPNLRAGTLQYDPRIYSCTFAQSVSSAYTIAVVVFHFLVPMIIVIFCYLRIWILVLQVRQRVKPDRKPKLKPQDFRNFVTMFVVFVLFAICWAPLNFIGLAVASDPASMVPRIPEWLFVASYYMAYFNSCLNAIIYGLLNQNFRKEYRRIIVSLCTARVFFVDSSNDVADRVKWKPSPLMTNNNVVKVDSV

[7] = target: PPRA-Peroxisome proliferator-activated (Homo sapiens, UniProt P37231); experiment: Cerep BioPrint receptor binding
Chain of PPRA-Peroxisome proliferator-activated (P37231 whole entry): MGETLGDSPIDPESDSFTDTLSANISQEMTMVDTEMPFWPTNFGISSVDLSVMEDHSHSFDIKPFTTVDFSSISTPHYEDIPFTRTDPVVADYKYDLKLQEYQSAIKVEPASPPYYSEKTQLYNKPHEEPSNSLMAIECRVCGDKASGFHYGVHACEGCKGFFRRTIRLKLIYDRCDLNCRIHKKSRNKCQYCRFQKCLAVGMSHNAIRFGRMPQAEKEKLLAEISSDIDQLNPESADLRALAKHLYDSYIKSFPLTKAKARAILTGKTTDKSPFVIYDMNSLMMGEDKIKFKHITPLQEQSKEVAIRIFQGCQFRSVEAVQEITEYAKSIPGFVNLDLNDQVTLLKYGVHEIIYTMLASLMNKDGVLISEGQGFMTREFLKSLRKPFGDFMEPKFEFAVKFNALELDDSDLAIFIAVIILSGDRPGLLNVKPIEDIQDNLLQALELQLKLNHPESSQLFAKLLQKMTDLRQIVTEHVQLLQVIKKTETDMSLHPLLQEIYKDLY

Dopamine/D1 = Dopamine/D1 (Homo sapiens, UniProt P21728); experiment: Cerep BioPrint dependence and addiction panel; type: binding
mice [8] = experiment: LD50 established using mice; type: in vivo
Procedure: (§1) LD50 (abbreviation for “Lethal Dose, 50%”) is established using mice. The dose translation between mouse and human is based on body surface area allometric translation. For example, a 1 mg/kg mouse dose is equivalent to a 0.08 mg/kg human dose. For more information on species dose translation see: Reagan-Shaw et. al, FASEB J. 122, 659-661 (2007).

[9] = LD50 established using mice; type: in vivo; conditions: in vivo, body surface area translation mouse to human
Procedure: as §1

A3 agonist-Adenosine A3 = target: T8, A3 agonist-Adenosine A3 (Homo sapiens, UniProt P0DMS8); experiment: Cerep BioPrint receptor binding
T8 construct: Cerep (contract screen)
T8 sequence (P0DMS8 whole entry): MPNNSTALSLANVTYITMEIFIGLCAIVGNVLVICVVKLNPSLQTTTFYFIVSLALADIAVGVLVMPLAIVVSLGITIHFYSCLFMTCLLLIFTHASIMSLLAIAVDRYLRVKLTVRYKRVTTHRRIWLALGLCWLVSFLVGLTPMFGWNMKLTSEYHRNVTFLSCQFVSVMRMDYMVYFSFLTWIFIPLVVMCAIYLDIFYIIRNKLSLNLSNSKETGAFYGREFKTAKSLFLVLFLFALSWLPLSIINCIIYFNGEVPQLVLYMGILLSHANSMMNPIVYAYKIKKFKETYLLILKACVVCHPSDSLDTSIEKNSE

Cholecystokinin/CCK2 = target: T9, Cholecystokinin/CCK2 (Homo sapiens, UniProt P32239); experiment: Cerep BioPrint dependence and addiction panel; type: binding
T9 construct: Cerep (contract screen)
T9 sequence (P32239 whole entry): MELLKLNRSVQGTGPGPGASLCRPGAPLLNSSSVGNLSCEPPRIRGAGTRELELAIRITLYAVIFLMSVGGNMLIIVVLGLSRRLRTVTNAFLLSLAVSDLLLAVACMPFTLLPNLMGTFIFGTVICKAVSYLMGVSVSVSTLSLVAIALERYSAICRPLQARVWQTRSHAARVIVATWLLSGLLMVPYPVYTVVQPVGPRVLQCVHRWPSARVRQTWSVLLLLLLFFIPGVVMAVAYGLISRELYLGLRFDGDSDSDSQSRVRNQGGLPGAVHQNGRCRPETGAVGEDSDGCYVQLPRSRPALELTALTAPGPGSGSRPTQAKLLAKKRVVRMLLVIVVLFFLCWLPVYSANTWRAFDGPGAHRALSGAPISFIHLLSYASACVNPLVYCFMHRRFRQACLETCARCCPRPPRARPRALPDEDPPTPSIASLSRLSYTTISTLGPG

Melanocortin/MC4 = target: T10, Melanocortin/MC4 (Homo sapiens, UniProt P32245); experiment: Cerep BioPrint dependence and addiction panel; type: binding
T10 construct: Cerep (contract screen)

dopamine levels = experiment: Effect on dopamine levels; conditions: compared with Δ9-THC
[10] = tested on: Sigma/Sigma non selective; experiment: Cerep BioPrint dependence and addiction panel; type: binding
in vivo = conditions: mouse, iv, 10 mg/kg
[11] = target: T11, Dopamine/dopamine transporter (Homo sapiens, UniProt Q01959); experiment: Cerep BioPrint dependence and addiction panel; type: binding
T11 construct: Cerep (contract screening panel)

[12] = LC/MS pharmacokinetics of CMX-020 in mice (plasma, brain, liver); conditions: 15 min timepoint, 10 mg/kg iv, n=2 individual values
mice [13] = experiment: Writhing assay in mouse (bolus and continuous infusion); type: in vivo; conditions: for dose dependence of the level of analgesia: mouse writhing assay
Steroid nuclear/GR = target: T12, Steroid nuclear/GR (Homo sapiens, UniProt P04150); experiment: Cerep BioPrint dependence and addiction panel; type: binding
T12 construct: Cerep (contract screening panel)

[14] = tested on: CB1 cannabinoid knockout mice; experiment: Analgesic effect in CB1 cannabinoid knockout mice; type: in vivo; conditions: CB1 cannabinoid knockout mice (homozygotes)
Serotonin/5-HT3 = Serotonin/5-HT3 (Homo sapiens, UniProt P46098); experiment: Cerep BioPrint dependence and addiction panel; type: binding
[15] = tested on: TRPV1 vanilloid knockout mice; experiment: Analgesic effect in TRPV1 vanilloid knockout mice; type: in vivo; conditions: TRPV1 vanilloid knockout mice (homozygotes)
Antipyretic effect = type: in vivo, mice; conditions: CMX-020 Injectable Solution
Procedure: CMX-020 Injectable Solution may also be given to patients during surgery or dental procedures to relieve pain and as an adjunct to an anaesthetic.
Recordings of body temperature in male mice (30 grams) were achieved using a mouse rectal temperature probe. Baseline was recorded twice for 10 minutes at intervals of 2 minutes with a 15 minute span of no recording.

Glutamate/PCP = experiment: Cerep BioPrint dependence and addiction panel; type: binding
δ- opioid agonist = target: T13, δ- opioid agonist (Homo sapiens, UniProt P41143); experiment: Cerep BioPrint receptor binding
T13 construct: Cerep (contract screen)
T13 sequence (P41143 whole entry): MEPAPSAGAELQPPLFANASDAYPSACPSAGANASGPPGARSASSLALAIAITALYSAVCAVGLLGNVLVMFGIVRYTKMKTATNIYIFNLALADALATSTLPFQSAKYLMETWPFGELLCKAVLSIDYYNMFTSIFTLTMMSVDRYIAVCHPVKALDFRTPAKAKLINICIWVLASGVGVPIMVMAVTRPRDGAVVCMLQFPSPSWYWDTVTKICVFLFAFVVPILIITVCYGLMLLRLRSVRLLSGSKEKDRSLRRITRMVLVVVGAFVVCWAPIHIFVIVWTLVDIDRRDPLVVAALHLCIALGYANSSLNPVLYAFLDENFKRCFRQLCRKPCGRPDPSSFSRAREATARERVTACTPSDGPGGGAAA
Procedure: (§2) For the initial BioPrint screen, a free compound concentration of 10 μM was used, which corresponds to a 2.5 mg/kg bolus dose in a mouse. […] Thus, a 2.5 mg/kg bolus dose would be equivalent to a […] free compound concentration.

CB1 Cannabinoid agonist = target: T14, CB1 Cannabinoid agonist (Homo sapiens, UniProt P21554); experiment: Cerep BioPrint receptor binding
T14 construct: Cerep (contract screen)
T14 sequence (P21554 whole entry): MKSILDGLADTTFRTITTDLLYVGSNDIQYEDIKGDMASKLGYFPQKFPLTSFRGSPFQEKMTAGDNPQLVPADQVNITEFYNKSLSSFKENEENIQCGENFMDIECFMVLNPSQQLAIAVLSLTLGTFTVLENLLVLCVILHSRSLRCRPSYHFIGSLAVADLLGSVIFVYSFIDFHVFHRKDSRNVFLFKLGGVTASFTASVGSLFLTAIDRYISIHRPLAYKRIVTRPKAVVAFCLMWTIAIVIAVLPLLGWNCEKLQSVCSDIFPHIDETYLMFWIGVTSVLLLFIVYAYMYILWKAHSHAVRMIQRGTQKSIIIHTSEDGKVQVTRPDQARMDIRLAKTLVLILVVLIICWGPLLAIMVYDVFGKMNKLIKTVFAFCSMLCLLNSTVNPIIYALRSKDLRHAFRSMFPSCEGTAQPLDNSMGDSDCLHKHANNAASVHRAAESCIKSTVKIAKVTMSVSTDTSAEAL
Procedure: as §2

κ-opioid agonist = target: T15, κ-opioid agonist (Rattus norvegicus, UniProt P34975); experiment: Cerep BioPrint receptor binding
T15 construct: Cerep (contract screen)
T15 sequence (P34975 whole entry): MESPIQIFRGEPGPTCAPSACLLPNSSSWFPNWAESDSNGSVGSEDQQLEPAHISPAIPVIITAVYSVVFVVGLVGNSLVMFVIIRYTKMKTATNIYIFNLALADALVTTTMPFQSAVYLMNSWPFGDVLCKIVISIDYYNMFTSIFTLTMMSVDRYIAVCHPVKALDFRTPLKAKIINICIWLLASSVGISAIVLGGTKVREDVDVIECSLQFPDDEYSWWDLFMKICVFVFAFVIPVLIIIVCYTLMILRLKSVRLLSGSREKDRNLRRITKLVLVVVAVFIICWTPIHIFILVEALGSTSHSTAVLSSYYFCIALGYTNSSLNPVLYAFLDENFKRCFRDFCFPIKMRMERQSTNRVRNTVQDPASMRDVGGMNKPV
Procedure: as §2

CB2 Cannabinoid agonist = target: T16, CB2 Cannabinoid agonist (Homo sapiens, UniProt P34972); experiment: Cerep BioPrint receptor binding
T16 construct: Cerep (contract screen)
T16 sequence (P34972 whole entry): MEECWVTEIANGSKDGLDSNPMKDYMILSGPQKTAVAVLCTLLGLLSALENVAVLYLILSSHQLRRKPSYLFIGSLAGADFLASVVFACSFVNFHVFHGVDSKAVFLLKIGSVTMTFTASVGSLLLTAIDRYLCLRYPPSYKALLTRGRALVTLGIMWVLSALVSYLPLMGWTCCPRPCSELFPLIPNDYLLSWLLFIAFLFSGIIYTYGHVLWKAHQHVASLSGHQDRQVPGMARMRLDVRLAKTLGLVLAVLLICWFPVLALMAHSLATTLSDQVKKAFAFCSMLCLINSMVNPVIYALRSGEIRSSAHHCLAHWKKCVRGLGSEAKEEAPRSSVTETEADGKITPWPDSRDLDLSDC
Procedure: as §2

Opioid/NOP(ORL1) = target: T17, Opioid/NOP(ORL1) (Homo sapiens, UniProt P41146); experiment: Cerep BioPrint dependence and addiction panel; type: binding
T17 construct: Cerep (contract screening panel)

[16] = target: T18, Serotonin/5HT transporter (Homo sapiens, UniProt P31645); experiment: Cerep BioPrint dependence and addiction panel; type: binding
T18 construct: Cerep (contract screening panel)

plasma or serum proteins = experiment: Binding to plasma or serum proteins; type: in vitro ADME
Procedure: as §2

[17] = CMX-020 Injectable Emulsion, from mouse writhing assay
[18] = continuous infusion, from mouse writhing assay

## CCCCCC1OC1C/C=C\C/C=C\C/C=C\CCCC(=O)O (stereo not drawn) [14,15-EET, 14,15-EET (epoxyeicosatrienoic acid), reference compound]
[1]
  analgesic potency relative to natural EETs: most potent analgesic of the natural EETs

## CCCCCC(=O)N(CC/C=C\C/C=C\C/C=C\CCCC(=O)NC1CC1)C(C)C [CMX-020]
Adenosine/A2A
  inhibition at 10 µM: 7%
Serotonin/5-HT1A
  % Inhibition @10 uM: 26%
Opioid/mu(MOP)
  inhibition at 10 µM: 26%
Dopamine/D3
  % Inhibition @10 uM: 25%
Serotonin/5-Ht2A
  inhibition at 10 µM: 29%
Mice [2]
  time to maximal (full) analgesic response, tail-flick: 5 min
TRPV1(VR1) agonist
  IC50: 7.5 µM
TRPV1(VR1) agonist; TRPV1(VR1) agonist, 10 uM
  % Inhibition @10 uM: 59%
[3]
  IC50: 5.1 µM
ATPase/ATPase(Na+/K+)
  % Inhibition @10 uM: 12%
GABA/GABAA
  % Inhibition @10 uM: 11%
[1]
  analgesic potency in side-by-side comparison with AM404: more potent analgesic without the toxic effects
Dopamine/D2S
  % Inhibition @10 uM: 8%
GABA/GABAB(1b)
  inhibition at 10 µM: -6%
[4]
  % Inhibition @10 uM: 15%
[5]
  time to peak effect: within minutes
  onset of analgesia after intravenous bolus injection or infusion: 3 to 5 min
  duration of analgesic effect from bolus injection: 20 to 30 min and 20 to 25 min
[5]; continuous infusion
  time for which sustained levels of analgesia can be maintained: ≥ 48 h
[5]; intravenous
  half-time of the blood-brain equilibration: 1 to 3 min
Solubility in water
  solubility in water: very slightly soluble
Glutamate/AMPA
  % Inhibition @10 uM: 9%
[6]
  IC50: 1.2 µM
[6]; MT1(ML1A) agonist-Melatonin, 10 uM
  inhibition at 10 µM: 88%
[7]
  inhibition at 10 µM: 58%
Dopamine/D1
  % Inhibition @10 uM: 7%
Mice [8]; body surface area translation mouse to human
  LD50 CMX-020 Doses, Maintenance: 6.4 mg/kg/h
Mice [8]; for a 70 kg human
  LD50 CMX-020 Doses, Bolus: 170 mg
  LD50 CMX-020 Doses, Maintenance: 450 mg/h
[9]
  LD50: 2.4 mg/kg
A3 agonist-Adenosine A3
  IC50: 2.6 µM
A3 agonist-Adenosine A3; A3 agonist-Adenosine A3, 10 uM
  inhibition at 10 µM: 64%
Cholecystokinin/CCK2
  inhibition at 10 µM: -27%
Melanocortin/MC4
  inhibition at 10 µM: 0%
Dopamine levels
  effect on dopamine levels: does not elevate dopamine levels
[10]
  % Inhibition @10 uM: 31%
In vivo; brain
  concentration at 15 min: 704 ng/g
  concentration at 60 min: < 20 ng/g
In vivo; liver
  concentration at 15 min: 170 ng/g
  concentration at 60 min: < 20 ng/g
In vivo; plasma
  C0: ~14000 ng/mL and ~33 µM
  half-life: ~17 min
[11]
  inhibition at 10 µM: 15%
[12]
  amount present in brain: 843 ng/g tissue
  amount present in liver: 211 ng/g tissue
Mice [13]; 24 hour infusion by Alzet pump, measured at 3 hours and 20 hours, preliminary
  continuous infusion dose producing roughly the same level of analgesia (roughly 50% MPE), writhing assay: 2 mg/kg/h
Mice [13]; CMX-020 0.05 mg/kg
  analgesic response compared with Perfalgan 12.5 mg/kg, writhing assay: higher analgesic response than Perfalgan
Mice [13]; [17]
  Analgesic Equivalent to Acetaminophen 2x, Bolus dose: 0.02 mg/kg
  Analgesic Equivalent to Acetaminophen 3x, Bolus dose: 0.04 mg/kg
Mice [13]; continuous infusion in mice
  time over which analgesic levels are sustained by continuous infusion: 24 h
Mice [13]; [18]
  Analgesic Equivalent to Acetaminophen 1x, Maintenance dose: 0.08 mg/kg/h
  Analgesic Equivalent to Acetaminophen 2x, Maintenance dose: 0.16 mg/kg/h
  Analgesic Equivalent to Acetaminophen 3x, Maintenance dose: 0.32 mg/kg/h
Mice [13]; for a 70 kg human
  Analgesic Equivalent to Acetaminophen 1x, Bolus dose: 0.6 mg
  Analgesic Equivalent to Acetaminophen 1x, Maintenance dose: 6 mg/h
  Analgesic Equivalent to Acetaminophen 2x, Bolus dose: 1.4 mg
  Analgesic Equivalent to Acetaminophen 2x, Maintenance dose: 11 mg/h
  Analgesic Equivalent to Acetaminophen 3x, Bolus dose: 2.8 mg
  Analgesic Equivalent to Acetaminophen 3x, Maintenance dose: 23 mg/h
Mice [13]; intravenous bolus
  dose achieving 100% MPE, writhing assay: approximately 0.5 mg/kg
Mice [13]
  dose dependence of the level of analgesia: dose dependent
Mice [13]; mouse, in vivo, iv
  Analgesic Equivalent to Acetaminophen 1x, Bolus dose: 0.01 mg/kg
Steroid nuclear/GR
  inhibition at 10 µM: 9%
[14]
  analgesic effect in knockout mice: almost completely blocked
Serotonin/5-HT3
  % Inhibition @10 uM: −1%
[15]
  analgesic effect in knockout mice: altered
Antipyretic effect
  duration of the antipyretic effect after ending administration: at least 2 hours
  time to fever reduction after the start of administration: ≤ 30 min
Glutamate/PCP
  % Inhibition @10 uM: −6%
δ- opioid agonist
  IC50: 13 µM
δ- opioid agonist; δ- opioid agonist, 10 uM
  inhibition at 10 µM: 52%
CB1 Cannabinoid agonist
  IC50: 0.021 µM
CB1 Cannabinoid agonist; CB1 Cannabinoid agonist, 10 uM
  inhibition at 10 µM: 98%
κ-opioid agonist
  IC50: 4.7 µM
κ-opioid agonist; κ-opioid agonist, 10 uM
  inhibition at 10 µM: 61%
CB2 Cannabinoid agonist
  IC50: 0.15 µM
CB2 Cannabinoid agonist; CB2 Cannabinoid agonist, 10 uM
  inhibition at 10 µM: 98%
Opioid/NOP(ORL1)
  inhibition at 10 µM: 5%
[16]
  inhibition at 10 µM: 10%
Plasma or serum proteins
  fraction unbound: ~0.01

## CN1CC[C@]23c4c5ccc(O)c4O[C@H]2[C@@H](O)C=C[C@H]3[C@H]1C5 [Morphine, morphine, reference compound]
Mice [2]
  time to maximal (full) analgesic response, tail-flick: 15 min
Mice [2]; intravenous
  dose needed in tail-flick assay relative to writhing assay for a moderate level of efficacy: roughly 100 ×
[5]
  time to peak effect: 15 to 40 min
  onset of analgesia after intravenous bolus injection or infusion: 20 min
  duration of analgesic effect from bolus injection: 35 to 40 min
Mice [13]; mouse, in vivo
  continuous infusion dose producing roughly the same level of analgesia (roughly 50% MPE), writhing assay: 1 mg/kg/h
  time over which analgesic levels are sustained by continuous infusion: 24 h
Mice [13]; mouse, in vivo, iv
  dose achieving 100% MPE, writhing assay: approximately 0.5 mg/kg

## CC(=O)Nc1ccc(O)cc1 [acetaminophen, reference compound]
Mice [13]
  dose dependence of the level of analgesia: not dose dependent
